Data: ChEMBL document CHEMBL1201862, “PubChem BioAssay data set” (2004)
Calls of active or inactive are those of the source.

How the values were obtained:
[1] = cells; format: functional, cell-based
[2] = target: T1, Trace amine-associated receptor 1 (Homo sapiens, UniProt Q96RJ0); test: Fluorescence-based cell-based high throughput dose response assay to identify agonists of the human trace amine associated receptor 1 (TAAR1).; format: functional
T1 sequence (Q96RJ0 whole entry): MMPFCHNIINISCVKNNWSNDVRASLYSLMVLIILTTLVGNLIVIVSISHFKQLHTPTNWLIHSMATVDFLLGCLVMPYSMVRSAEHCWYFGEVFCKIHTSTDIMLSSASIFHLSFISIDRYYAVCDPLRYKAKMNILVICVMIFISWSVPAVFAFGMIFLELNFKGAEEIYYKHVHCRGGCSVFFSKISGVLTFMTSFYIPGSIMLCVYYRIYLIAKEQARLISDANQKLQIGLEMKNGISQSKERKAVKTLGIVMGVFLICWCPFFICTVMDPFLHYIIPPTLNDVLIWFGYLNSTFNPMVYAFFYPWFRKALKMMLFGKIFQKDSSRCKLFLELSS

[3] = cells; format: functional, cell-based; remark: listed apart in the source
[4] = target: T1, Trace amine-associated receptor 1; test: Counterscreen for agonists of the human trace amine associated receptor 1 (hTAAR1): Fluorescence-based cell-based high throughput dose response assay to identify hTAAR1 agonist that also desensitize TAAR1 receptor response.; format: functional
[5] = AlphaScreen signal interference compounds, dose response, artefact control for ARNT-TACC3 interaction inhibitor project, biochemical, luminescence, cherry-pick (AID 651705); format: functional;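 also: AlphaScreen bead proximity signal that flags compounds interfering with the detection technology; potency reflects signal decrease which marks the compound as an assay artifact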
[6] = target: T2, DNA repair and recombination protein RAD54-like (Homo sapiens, UniProt Q92698); test: inhibitors of human RAD54 branch migration, confirmation, biochemical, fluorescence, cherry-picked samples, dose series (AID 651657); format: functional
T2 sequence (Q92698 whole entry): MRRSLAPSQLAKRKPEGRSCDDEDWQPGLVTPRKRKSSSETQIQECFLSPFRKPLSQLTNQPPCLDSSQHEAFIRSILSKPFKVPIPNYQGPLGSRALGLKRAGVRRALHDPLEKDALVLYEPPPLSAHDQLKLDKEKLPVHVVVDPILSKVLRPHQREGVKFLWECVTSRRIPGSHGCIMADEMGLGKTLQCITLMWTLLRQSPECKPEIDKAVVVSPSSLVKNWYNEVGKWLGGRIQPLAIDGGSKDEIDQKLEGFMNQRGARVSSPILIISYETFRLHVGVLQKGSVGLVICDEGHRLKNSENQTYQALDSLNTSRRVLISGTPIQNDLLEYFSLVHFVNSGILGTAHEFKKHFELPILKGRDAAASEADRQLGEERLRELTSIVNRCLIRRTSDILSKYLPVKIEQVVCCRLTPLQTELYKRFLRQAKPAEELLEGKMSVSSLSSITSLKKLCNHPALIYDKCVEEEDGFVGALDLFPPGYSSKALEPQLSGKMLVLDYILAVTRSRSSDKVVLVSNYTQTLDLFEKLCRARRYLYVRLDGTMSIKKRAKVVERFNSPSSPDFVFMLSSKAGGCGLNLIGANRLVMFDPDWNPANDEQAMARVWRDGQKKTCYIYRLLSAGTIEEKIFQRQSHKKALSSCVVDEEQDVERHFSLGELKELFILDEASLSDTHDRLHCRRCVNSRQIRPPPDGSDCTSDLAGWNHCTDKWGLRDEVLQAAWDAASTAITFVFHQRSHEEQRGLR

[7] = target: Cytochrome P450 2C9 (Homo sapiens, UniProt P11712)
[8] = target: T3, Cytochrome P450 1A2 (Homo sapiens, UniProt P05177);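 also: PubChem cytochrome P450 panel assay, CYP1A2 panel member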
T3 sequence (P05177 whole entry): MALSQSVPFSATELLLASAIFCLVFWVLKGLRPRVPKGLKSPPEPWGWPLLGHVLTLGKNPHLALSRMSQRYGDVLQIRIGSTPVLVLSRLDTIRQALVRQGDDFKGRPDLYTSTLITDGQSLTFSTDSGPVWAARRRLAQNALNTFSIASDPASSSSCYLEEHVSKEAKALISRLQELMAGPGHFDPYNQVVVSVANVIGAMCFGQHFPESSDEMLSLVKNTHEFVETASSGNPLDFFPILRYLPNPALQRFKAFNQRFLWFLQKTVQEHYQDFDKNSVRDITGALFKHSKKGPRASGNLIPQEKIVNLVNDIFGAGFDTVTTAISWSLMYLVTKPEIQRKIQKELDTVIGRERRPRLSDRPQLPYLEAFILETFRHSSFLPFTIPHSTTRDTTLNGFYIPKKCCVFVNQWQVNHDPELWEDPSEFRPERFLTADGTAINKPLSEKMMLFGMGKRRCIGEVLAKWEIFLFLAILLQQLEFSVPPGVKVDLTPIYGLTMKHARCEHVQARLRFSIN

[9] = target: T4, DNA repair protein RAD52 homolog (Homo sapiens, UniProt P43351); format: functional, biochemical
T4 sequence (P43351 whole entry): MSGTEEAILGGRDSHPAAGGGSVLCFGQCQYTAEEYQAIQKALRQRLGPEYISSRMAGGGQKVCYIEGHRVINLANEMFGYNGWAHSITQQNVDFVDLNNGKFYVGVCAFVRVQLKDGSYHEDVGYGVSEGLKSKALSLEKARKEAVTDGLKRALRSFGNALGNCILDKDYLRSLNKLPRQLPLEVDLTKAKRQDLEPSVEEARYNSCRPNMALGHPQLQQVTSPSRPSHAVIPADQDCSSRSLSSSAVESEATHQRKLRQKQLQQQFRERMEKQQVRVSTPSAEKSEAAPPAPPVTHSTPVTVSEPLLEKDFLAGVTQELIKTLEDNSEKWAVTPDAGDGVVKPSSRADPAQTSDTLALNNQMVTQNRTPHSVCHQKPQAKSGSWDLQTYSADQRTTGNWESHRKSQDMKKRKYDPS

[10] = target: T5, Streptokinase A (Streptococcus pyogenes serotype M1, UniProt P10520); test: S. pyogenes streptokinase expression inhibitors, potency, dose response, plasminogen activation absorbance, OD405 (AID 1914); format: functional, Streptococcus pyogenes M1 GAS;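 also: secreted streptokinase activity via plasminogen activation per viability signal from cell pellet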
T5 sequence (P10520 whole entry): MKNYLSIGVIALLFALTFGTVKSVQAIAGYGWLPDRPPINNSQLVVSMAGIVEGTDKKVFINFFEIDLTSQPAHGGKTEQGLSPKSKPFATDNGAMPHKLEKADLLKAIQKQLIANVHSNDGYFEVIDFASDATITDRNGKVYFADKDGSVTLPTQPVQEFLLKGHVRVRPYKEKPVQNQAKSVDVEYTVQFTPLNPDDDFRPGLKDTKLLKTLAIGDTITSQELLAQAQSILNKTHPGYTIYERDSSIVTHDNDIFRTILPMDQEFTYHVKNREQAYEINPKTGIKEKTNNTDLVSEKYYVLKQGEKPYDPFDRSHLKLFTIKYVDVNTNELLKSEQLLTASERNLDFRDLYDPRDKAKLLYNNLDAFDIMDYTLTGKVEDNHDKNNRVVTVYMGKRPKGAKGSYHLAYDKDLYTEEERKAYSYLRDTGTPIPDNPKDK

[11] = cytotoxicity toward NIH3T3 fibroblasts, dose response, counter-screen, cell-based, ATP luminescence, mouse fibroblasts (AID 2010); format: functional;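 also: cells exposed to compound for about 90 hours before reading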
[12] = inhibitors of intracellular T. cruzi replication, confirmation, NIH3T3 host cells, beta-gal luminescence (AID 2044); format: functional, cell-based;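 also: intracellular parasites grown in NIH/3T3 mouse fibroblasts as host cells; luminescent beta-galactosidase reporter signal from transgenic T. cruzi replicating inside host cells; inhibitors lower the luminescence signal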
[13] = test system: Streptococcus sp. 'group A'; test: growth inhibition of control SK(-) GAS strain, dose response, counter-screen for streptokinase expression inhibitor project, luminescence, kanamycin, BacTiterGlo, confirmation (AID 1900); format: functional, organism-based
[14] = test system: Streptococcus; test: Group A Streptococcus viability loss, dose response, counter-screen for streptokinase expression inhibitor project, luminescence, BacTiterGlo (AID 1915); format: functional, organism-based;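 also: potency for reduction of bacterial viability or growth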
[15] = CEM21 lymphoblast cell cytotoxicity, dose response, cytotoxicity control for viral fusion inhibitor project, CellTiter-Glo luminescence, cherry-picked (AID 652042); format: functional, cell-based;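 also: potency for signal decrease meaning cytotoxicity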
[16] = inhibitors of HIV Env-driven cell fusion, dose response, cherry-pick (AID 652057); format: functional, cell-based
[17] = inhibitors of clade B AD8 Env fusion, dose response, cell-based, cherry-pick (AID 652062); format: functional;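 also: luciferase signal from cell-cell fusion driven by HIV-1 clade B AD8 Env; potency is for inhibitors of fusion seen as a drop in luminescence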
[18] = ZM109 Env clade C HIV-1 fusion inhibitors, dose response, HeLa effector, CEM target cells, luciferase, cherry-pick (AID 652058); format: functional, cell-based
[19] = target: T6, Ubiquitin-conjugating enzyme E2 N (Homo sapiens, UniProt P61088); format: functional;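 also: Dose-response confirmation in a TR-FRET assay detecting UBC13-driven polyubiquitin chain formation, inhibition measured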
T6 sequence (P61088 whole entry): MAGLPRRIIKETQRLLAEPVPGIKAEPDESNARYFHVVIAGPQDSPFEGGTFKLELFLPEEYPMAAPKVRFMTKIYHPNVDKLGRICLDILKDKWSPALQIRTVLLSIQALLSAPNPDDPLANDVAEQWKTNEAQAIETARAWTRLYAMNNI

[20] = HeLa cell cytotoxicity, dose response, cytotoxicity control for MgcRacGAP inhibitor project (AID 624300); format: functional
[21] = target: T7, Rac GTPase-activating protein 1 (Homo sapiens, UniProt Q9H0H5); test: MgcRacGAP GTPase-activating activity inhibitors, confirmation, biochemical, ADP Hunter fluorescence, primary and confirmatory (AID 624330); format: functional
T7 sequence (Q9H0H5 whole entry): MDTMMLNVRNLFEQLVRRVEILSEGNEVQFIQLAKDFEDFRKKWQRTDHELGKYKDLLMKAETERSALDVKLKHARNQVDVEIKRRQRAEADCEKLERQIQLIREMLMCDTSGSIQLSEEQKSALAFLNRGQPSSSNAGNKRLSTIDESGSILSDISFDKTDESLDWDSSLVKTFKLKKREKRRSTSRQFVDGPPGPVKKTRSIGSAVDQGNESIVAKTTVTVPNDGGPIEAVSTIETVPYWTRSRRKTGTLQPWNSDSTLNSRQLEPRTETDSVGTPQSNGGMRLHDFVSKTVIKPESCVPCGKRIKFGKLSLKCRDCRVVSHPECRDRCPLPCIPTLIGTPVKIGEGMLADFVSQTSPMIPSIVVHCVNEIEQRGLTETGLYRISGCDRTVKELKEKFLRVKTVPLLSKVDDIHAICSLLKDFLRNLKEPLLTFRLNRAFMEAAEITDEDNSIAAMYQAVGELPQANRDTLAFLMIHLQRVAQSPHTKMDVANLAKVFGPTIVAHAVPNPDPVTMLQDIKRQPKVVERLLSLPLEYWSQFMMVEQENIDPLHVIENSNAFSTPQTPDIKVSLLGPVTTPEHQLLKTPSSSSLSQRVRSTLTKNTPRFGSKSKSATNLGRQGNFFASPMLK

Cytochrome P450 2C9, sequence (P11712 whole entry): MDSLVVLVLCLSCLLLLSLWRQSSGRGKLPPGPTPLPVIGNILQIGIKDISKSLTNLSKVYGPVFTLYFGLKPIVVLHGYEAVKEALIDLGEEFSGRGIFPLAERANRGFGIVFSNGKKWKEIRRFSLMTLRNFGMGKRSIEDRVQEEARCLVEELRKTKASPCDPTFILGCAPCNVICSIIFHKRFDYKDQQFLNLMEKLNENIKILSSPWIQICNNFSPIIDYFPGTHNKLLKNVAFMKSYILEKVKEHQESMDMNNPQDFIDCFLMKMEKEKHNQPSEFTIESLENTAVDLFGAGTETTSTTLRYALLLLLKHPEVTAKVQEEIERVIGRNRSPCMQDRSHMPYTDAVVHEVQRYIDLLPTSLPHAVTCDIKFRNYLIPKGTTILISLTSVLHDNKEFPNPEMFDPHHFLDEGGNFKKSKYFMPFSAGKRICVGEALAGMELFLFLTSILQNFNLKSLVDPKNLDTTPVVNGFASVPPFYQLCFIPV

Compound: Cc1cc(S(=O)(=O)Nc2cccc(Cl)c2)c(C)s1
- EC50 [1]: > 29.9 µM (inactive)
- EC50 [2]: 4.88 µM (active)
- IC50 [3]: > 29.9 µM (inactive)
- IC50 [4]: 8.66 µM (active)

Compound: CCOc1cc2nc(-c3ccc(OC)c(OC)c3)nc(NCCCN3CCOCC3)c2cc1OC
- AC50 [5]: 130 µM (active)
- AC50 [6]: 5.2 µM (active)

Compound: O=C(CSc1cccc2cccnc12)OCC(=O)c1ccccc1
- AC50 [7]: inconclusive
- AC50 [8]: 20 µM (inconclusive)
- AC50 [5]: 92.5 µM (active)

Compound: CN(C)CCNc1cc(-c2ccncc2)nc2ccccc12
- AC50 [9]: 4.09 µM (active)
- AC50 [6]: 17.2 µM (active)

Compound: CCOc1ccc(NC(=O)c2c(NC(=O)CNCCN3CCOCC3)sc3c2CCC3)cc1
- EC50 [10]: > 150 µM (not active)
- EC50 [11]: > 30 µM (not active)
- EC50 [12]: 1.74 µM (active)
- EC50 [13]: 1.95 µM (active)
- EC50 [14]: 59.5 µM (active)
- AC50 [5]: 75.1 µM (active)

Compound: CCc1ccccc1NC(=O)N1CCc2ccccc2C1
- EC50 [1]: > 29.9 µM (inactive)
- EC50 [2]: 0.321 µM (active)
- IC50 [3]: > 29.9 µM (inactive)
- IC50 [4]: > 29.9 µM (inactive)

Compound: CCCCCCCCN1C(=O)[C@H](CC(=O)NCc2cccs2)C[C@@]2(C(=O)OCC)CCCC=C12
- AC50 [15]: 25.1 µM (active)
- AC50 [16]: 16.8 µM (active)
- AC50 [17]: 22.7 µM (active)
- AC50 [18]: 17 µM (active)

Compound: COc1ccc(NC(=O)Nc2ccc3c(c2)CC(=O)N([C@@H](C)CO)C[C@@H](C)[C@H](CN(C)Cc2ccc(C(F)(F)F)cc2)O3)cc1
- AC50 [15]: 23.2 µM (active)
- AC50 [16]: 6.8 µM (active)
- AC50 [17]: 27 µM (active)
- AC50 [18]: 2.67 µM (active)

Compound: CN1CCN(CCCN2c3ccccc3Sc3ccc(Cl)cc32)CC1 [PROCHLORPERAZINE EDISYLATE]
- AC50 [9]: 17.6 µM (active)
- IC50 [19]: > 20 µM (inactive)
- CC50 [20]: 65 µM (active)
- IC50 [21]: 80 µM (active)
